Data from publication PMC8341946, “Wheat pathogen Zymoseptoria tritici N-myristoyltransferase inhibitors: on-target antifungal activity and an unusual metabolic defense mechanism” (RSC Chemical Biology, 2020).
“Also recorded” adds a separate entry of the source. Read-outs that look alike come from different tables or passages of the source.

Key:
ZtNMTΔ99 [1] = target: T1, ZtNMTΔ99 (Zymoseptoria tritici, UniProt F9XBB7); assay: ZtNMT IC50 assay (CPM, enzymatic); type: biochemical
Excerpt: As the peptide substrate we used an octapeptide derived from the N-terminus of F9X1I2 (Z. tritici predicted homolog of ADP-ribosylation factor 1, ARF1), which we hypothesized would be natively myristoylated in vivo.
Fig. 1 ZtNMT enzymatic activity and structure. […] The CPM reagent enables fluorogenic readout of the reaction rate based on the generation of coenzyme A thiol. […] (D) ZtNMT homology model generated using Swiss Model[26] based on a reported A. fumigatus NMT X-Ray structure 4UWI[27] was aligned to HsNMT1 (PDB: 5MU6, in transparent grey). […] (E) A map of ligand interactions between docked IMP-1088 and its induced fit generated ZtNMT receptor protein residues.
The assay was adapted from a previous publication.[25] […] Accumulation of fluorescence signal at 470 nm was measured at one-minute intervals during the first 20 minutes of the reaction. Rates of the enzymatic reaction were calculated from the linear range of the resulting fluorescence over time curve using GraphPad Prizm 5. Then, sigmoidal dose–response (variable curve) fitting was applied to the data to obtain IC50 values. The assay was performed with at least 2 replicates, mean and confidence intervals are reported.

HsNMT1 [2] = details: cited from earlier work; for IC50: Table S1, ref SI refs 1-7 as given with each inhibitor name; for Ki: Table S1, cells marked (Ki), ref SI refs 3, 5, 6 as given with each inhibitor name, read-out: HsNMT1 IC50 (µM), value marked (Ki)
Z. tritici = assay: Anti-proliferative EC50 assay (MTS viability); type: cell-based, Zymoseptoria tritici
ZtNMTΔ99 [3] = target: T1, ZtNMTΔ99; type: biochemical; details: in the presence of 32 μM myristoyl-CoA; read-out: KM(peptide)
Method: ZtNMT characterization. KM and Vmax constants measurements were performed at two
ZtNMT concentrations: 100 ng/ml and 200 ng/ml.
B) ZtARF1 Km and Vmax measured
The kinetic constants for both NMT substrates in

Z. tritici culture = Z. tritici culture viability after 4 h treatment (microscope); type: cell-based, Zymoseptoria tritici; details: for culture phenotype under microscope: 4 h; for effect on cell viability: 4 h treatment, logarithmic growth phase
[4] = system: Z. tritici myristoylated proteome; assay: TMT-based proteomics of myristate enriched proteins after NMT inhibition; type: cell-based, Zymoseptoria tritici
HsNMT1 [5] = target: HsNMT1; parameters: method as in PMID 29760414; details: estimated; cited from earlier work
[6] = system: Z. tritici whole proteome; assay: TMT-based proteomics of the whole lysate after NMT inhibition; type: cell-based, Zymoseptoria tritici; details: 8-64 μM, 4 h
Method: These changes reflect the acute response mounted by the fungus in response to compound and are relatively substantial considering that they occur following only 4 hours of inhibitor treatment. Limited annotation of Z. tritici genes[43] prompted us to undertake an in-depth analysis using NCBI BLAST+[39] to find closest homologs in S. cerevisiae, one of the most well-annotated yeast genomes available. We performed the search filtering out poor alignment matches (e-value > 0.01) and selected a single best match in the S. cerevisiae proteome for each Z. tritici protein.
Fig. 3 Response of Z. tritici to treatment with NMT inhibitors. […] Data is normalized by subtraction of the row mean values. (B) GO biological process and KEGG term enrichments using Fisher's exact test applied to proteins in Cluster W. (C) GO biological process term enrichments from Fisher's exact test applied to proteins in Cluster Z. GO annotation were assigned to Z. tritici proteins based on S. cerevisiae homolog (BLAST analysis) terms.
0.8 mg of each of the TMTsixplex™ Isobaric labels was dissolved in 41 μl anhydrous acetonitrile and then 8 μl of the solution of a reagent was added to 30 μl of corresponding peptide solution to start the labelling reaction. The solution was stirred at room temperature for 1.5 h. […]

[7] = system: NMT activity in live Z. tritici; assay: YnMyr tagging in live Z. tritici, in-gel fluorescence
Method: Fig. 2 Inhibition and assessment of myristoylation in vivo. (A) Generalized workflow for identification and quantification of myristoylated proteins. Cells were treated with YnMyr in culture, and cell lysates ligated to multifunctional reagents bearing a TAMRA dye for fluorescent in-gel imaging and/or biotin for affinity enrichment and analysis by proteomics.
YnMyr was used to measure the effect of inhibitor on NMT activity in live Z. tritici.

[8] = Table S1, enzymatic CPM assay, read-out: IC50
[9] = Table S1, viability MTS assay, read-out: EC50

T1 sequence (F9XBB7 entry or part of it, stated change not applied): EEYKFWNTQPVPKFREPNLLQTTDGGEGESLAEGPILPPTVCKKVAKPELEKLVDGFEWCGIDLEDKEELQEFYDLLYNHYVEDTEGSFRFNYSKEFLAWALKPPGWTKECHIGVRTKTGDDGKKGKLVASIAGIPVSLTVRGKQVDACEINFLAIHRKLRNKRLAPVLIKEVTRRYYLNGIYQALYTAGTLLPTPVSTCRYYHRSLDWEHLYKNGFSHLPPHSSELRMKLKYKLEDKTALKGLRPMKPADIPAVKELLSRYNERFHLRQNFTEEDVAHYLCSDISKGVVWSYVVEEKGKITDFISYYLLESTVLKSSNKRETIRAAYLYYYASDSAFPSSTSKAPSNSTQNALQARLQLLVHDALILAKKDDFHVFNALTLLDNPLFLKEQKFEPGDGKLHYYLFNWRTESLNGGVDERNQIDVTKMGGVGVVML

Compound | IC50 (ZtNMTΔ99 [1]; [8]) [nM] | IC50 (HsNMT1 [2]) [nM] | further results
CNCc1nnc2ccc(-c3ccc(F)cc3OCCc3c(C(=O)N(C)C)nn(C)c3C)cn12 [IMP-1094] | 86 | 7 | –
Cc1nn(C)c(C)c1Cc1nnc(-c2cc(Cl)ccc2OC2CCNCC2)o1 [IMP-329] | 870 | – | EC50 (Z. tritici; [9]): 280 µM; Ki (HsNMT1 [2]): 0.02 µM
Cc1nn(C)c(C)c1CCOc1cc(F)ccc1-c1ccc2nnc(C3CNC3)n2c1 [IMP-1091] | 2100 | 56 | –
CNCCc1cnc2ccc(-c3ccc(F)cc3OCCc3c(CO)nn(C)c3C)cn12 [IMP-1185] | 4000 | 25.8 | –
Cc1nn(C)c(C)c1CCOc1c(F)cccc1-c1ccc2c(c1)c(CN)nn2C [IMP-1034] | 32 | 5 | –
CNCc1cnc2ccc(-c3ccc(F)cc3OCCc3c(C)nn(C)c3C)cn12 [IMP-1097] | 200 | 1.9 | –
CNCc1nnc2ccc(-c3ncccc3OCCc3c(C)nn(C)c3C)cn12 [IMP-1093] | > 300000 | 7390 | –
CNCc1nnc2ccc(-c3ccc(F)cc3OCCc3c(C(F)(F)F)nn(C)c3C)cn12 [IMP-1111] | 700 | 6.5 | –
CNCCc1cnc2ccc(-c3ccc(F)cc3OCCc3c(C(=O)N(C)C)nn(C)c3C)cn12 [IMP-1124] | 13 | 0.7 | –
Cc1nn(C)c(C)c1CCOc1c(F)cccc1-c1ccc2ncc(CN(C)C)n2c1 [IMP-1131] | 2400 | 2.4 | –
CNCc1cnc2ccc(-c3ccc(F)cc3OCCc3c(C#N)nn(C)c3C)cn12 [IMP-1195] | < 1 | < 1 | –
Cc1nn(C)c(C)c1NS(=O)(=O)c1c(Cl)cc(-c2ccnc(N3CCNCC3)c2)cc1Cl [IMP-366, reference compound] | – | – | EC50 (Z. tritici; Zymoseptoria tritici, Table S1, viability MTS assay): 110 µM; IC50 (ZtNMTΔ99 [1]): 50 nM
Cc1nn(C)c(C)c1CCOc1c(F)cccc1-c1ccc2c(c1)c(CN(C)C)nn2C [IMP-1031] | 16 | 4.6 | EC50 (Z. tritici; [9]): 51 µM
CNCc1cnc2ccc(-c3ccc(F)cc3OCCc3c(C(N)=O)nn(C)c3C)cn12 [IMP-1179] | 280 | 5.6 | –
NH2-GLTFSKLF-OH (H-GLTFSKLF-OH) [ZtARF1 peptide, octapeptide substrate derived from the N-terminus of F9X1I2 (Z. tritici ARF1 homolog)] | – | – | Km (ZtNMTΔ99 [3]): 2730 nM
Cc1c(CCOc2cc(F)ccc2-c2ccc3nnc(C4CNC4)n3c2)c(C(=O)N(C)C)nn1C [IMP-1100] | 16 | 1 | EC50 (Z. tritici; [9]): > 500 µM
Cc1nn(C)c(C)c1CCOc1cc(F)ccc1-c1ccc2[nH]nc(CN(C)C)c2c1 [IMP-917] | 160 | 13 | –
N[C@H](CC(=O)N1C[C@H](CO)[C@@H](c2ccc(Cl)c(NC(=O)Cc3ccc(F)cc3)c2)C1)Cc1ccc(Cl)cc1 [IMP-162] | – | – | culture phenotype under microscope (Z. tritici culture; 24 μM and 48 μM): phenotype consistent with cell death; culture phenotype under microscope (Z. tritici culture; 96 μM): most cells appear dead; effect on cell viability (Z. tritici culture): kill Z. tritici culture; EC50 (Z. tritici; Zymoseptoria tritici, Fig. 1B, Z. tritici cell viability, MTS, 40 h, read-out: EC50): ~20 µM; EC50 (Z. tritici; Zymoseptoria tritici, Table S1, viability MTS assay, read-out: EC50): 18 µM; IC50 (ZtNMTΔ99 [1]): 1900 nM
Cc1nn(C)c(C)c1CCOc1c(-c2ccc3c(c2)c(CN(C)C)nn3C)ccc(F)c1F [IMP-1088] | – | < 1 | YnMyr tagging of myristoylated proteins ([4]; 64 μM versus DMSO, 4 h): reduced tagging; TC50 (concentration of half-tagging with YnMyr) ([4]; first subset of myristoylated proteins in Cluster 1): 8 to 16 µM; TC50 (concentration of half-tagging with YnMyr) ([4]; second subset of myristoylated proteins in Cluster 1): 16 to 32 µM; TC50 (concentration of half-tagging with YnMyr) ([4]; third subset of myristoylated proteins in Cluster 1): 32 to 64 µM; effect on cell viability (Z. tritici culture): no detectable effect on cell viability; EC50 (Z. tritici; Fig. 1B, Z. tritici cell viability, MTS, 40 h): 23 µM; EC50 (Z. tritici; Zymoseptoria tritici, 40 h, Fig. 1B, Z. tritici cell viability, MTS): ~20 µM; Kd (HsNMT1 [5]): < 0.2 nM; whole proteome response [6]: significant dose-dependent changes in the expression of multiple proteins; IC50 (ZtNMTΔ99 [1]): 12 nM; TC50 (half maximal concentration of YnMyr tagging) ([7]; 4 h, intensity of most prominent band (ca. 20 kDa), in-gel fluorescence): 14 ± 1 µM; effect on YnMyr labeling (in-gel band intensities) ([7]; 4 h with compound and YnMyr, TAMRA fluorescence): dose-dependently reduces labeling; also recorded: reduced YnMyr tagging
COc1cc(CCOC(=O)c2sc3ccccc3c2OC2CCNCC2)cc(OC)c1 [IMP-277] | > 300000 | – | Ki (HsNMT1 [2]): 0.031 µM
CNCc1nnc2ccc(-c3ccc(F)cc3OCCc3c(C(=O)N4CCCC4)nn(C)c3C)cn12 [IMP-1112] | 420 | 19.8 | –
Cc1c(CCOc2cc(F)ccc2-c2ccc3ncc(CN(C)C)n3c2)c(C(=O)N(C)C)nn1C [IMP-1134] | < 1 | < 1 | EC50 (Z. tritici; [9]): 27 µM
Cc1nn(C)c(C)c1CCOc1cc(F)ccc1-c1ccc2nnc(C3CCCN3)n2c1 (stereo not drawn) [IMP-1090] | 22000 | 2590 | –
CNCc1nn(C)c2ccc(-c3cccc(F)c3OCCc3c(C)nn(C)c3C)cc12 [IMP-1036] | 30 | 16 | –
CNCc1nn(C)c2ccc(-c3ccc(F)c(F)c3OCCc3c(C)nn(C)c3C)cc12 [IMP-1089] | 6.7 | < 1 | EC50 (Z. tritici; [9]): 46 µM
